Reference: US20080280879A1, “SUBSTITUTED HETEROCYCLIC DERIVATIVES AND THEIR PHARMACEUTICAL USE AND COMPOSITIONS” (priority 2007, published 2008)
In brackets after ≈: the same amount, converted by molar mass.

Experiments:
Format in all cases: cell-based, Staphylococcus aureus
Staph aureus 2811 = test: MIC, microtiter broth dilution (CLSI M7-A7), Assay 1, Table 12 column D, no serum; conditions: for MIC: Staphylococcus aureus, 2811, Staph aureus 2811, Assay 1, no serum; for MIC, column D: Staph aureus 2811, Assay 1, no serum
Method: (§1) The assays described herein include a panel of bacterial isolates of Staphylococcus aureus. Assay 1 comprises the strains noted in Columns A through E, and Assay 2 comprises the strains noted in Columns F through H. The assays are performed in microtiter trays according to Methods for Dilution Antimicrobial Susceptibility Tests for Bacteria that Grow Aerobically; Approved Standard-7th edition (M7-A7) and interpreted according to the Performance Standards for Antimicrobial Susceptibility Testing; 16th Informational Supplement (M100-S16) published by Clinical Laboratory Standards Institute (CLSI). The antibacterial activity is presented in the form of a minimum inhibitory concentration (MIC) value in μg/ml format. The MIC value represents the lowest concentration of drug measured which prevented macroscopically visible growth under the conditions and specific doses tested. The compounds were initially dissolved in DMSO as 30 mM stocks and diluted accordingly to adjust to a concentration of 10 mg/ml or the compounds were dissolved in DMSO at a concentration of 10 mg/ml. For assessment of activity in the presence of human serum, S. aureus 1146 and S. aureus 1031 were inoculated into Mueller-Hinton Broth with 50% pooled inactivated human serum. In some cases, compounds were tested more than once in a particular assay. Where noted, the MIC value shown in Table 12 represents the geometric mean of the data from multiple runs.
(§2) It should be understood that the data in columns A-H represents MIC data in μg/ml and the notation “<=” means ‘less than or equal to’.

Staph aureus 1146 [1] = test: MIC in Mueller-Hinton Broth with 50% pooled inactivated human serum, Assay 1, Table 12; conditions: for MIC: Staphylococcus aureus, 1146, Staph aureus 1146, Assay 1, 50% human serum, read-out: MIC, column C; for MIC, column C: Staph aureus 1146, Assay 1, 50% human serum
Method: as §1, §2

Staph aureus 2812 = test: MIC, microtiter broth dilution (CLSI M7-A7), Assay 1, Table 12 column E, no serum; conditions: for MIC: Staphylococcus aureus, 2812, Staph aureus 2812, Assay 1, no serum; for MIC, column E: Staph aureus 2812, Assay 1, no serum
Method: as §1, §2

Staph aureus 1095 MRSA = test: MIC, microtiter broth dilution (CLSI M7-A7), Assay 1, Table 12 column A, no serum; conditions: Assay 1, no serum; for MIC: Staphylococcus aureus, MRSA
Method: as §1, §2

Staph aureus 1146 [2] = test: MIC, microtiter broth dilution (CLSI M7-A7), Assay 1, Table 12 column B, no serum; conditions: for MIC: Staphylococcus aureus, 1146, Staph aureus 1146, Assay 1, no serum; for MIC, column B: Staph aureus 1146, Assay 1, no serum
Method: as §1, §2

Row | MIC (Staph aureus 2811) [µg/mL] | MIC (Staph aureus 1146 [1]) [µg/mL] | MIC (Staph aureus 2812) [µg/mL] | MIC (Staph aureus 1095 MRSA) [µg/mL] | MIC (Staph aureus 1146 [2]) [µg/mL] | Structure (SMILES) | MIC, column D (Staph aureus 2811) | MIC, column C (Staph aureus 1146 [1]) [µg/mL] | MIC, column E (Staph aureus 2812) | MIC, column A (Staph aureus 1095 MRSA) [µg/mL] | MIC, column B (Staph aureus 1146 [2])
1 | ≤ 0.0625 | 2 (≈ 3.92 µM) | ≤ 0.0625 | 0.125 (≈ 0.245 µM) | ≤ 0.0625 | COc1ccc2nccc(C(O)CC[C@@H]3CCN(C4CC(c5cccc(F)c5F)C4)C[C@@H]3C(=O)O)c2c1 (stereo partly drawn) [Example 36, (3R,4R)-1-[3-(2,3-difluorophenyl)cyclobutyl]-4-[3-hydroxy-3-(6-methoxyquinolin-4-yl)propyl] piperidine-3-carboxylic acid] | – | – | – | – | –
2 | ≤ 0.0625 | 1 (≈ 1.96 µM) | 0.25 (≈ 0.49 µM) | 0.25 (≈ 0.49 µM) | ≤ 0.0625 | COc1ccc2nccc([C@@H](O)CC[C@@H]3CCN(C4CC(c5ccc(F)cc5F)C4)C[C@@H]3C(=O)O)c2c1 (stereo partly drawn) [Example 37, (3R,4R)-1-[3-(2,4-difluorophenyl)cyclobutyl]-4-[(3S)-3-hydroxy-3-(6-methoxyquinolin-4-yl)propyl] piperidine-3-carboxylic acid] | – | – | – | – | –
3 | ≤ 0.0625 | 1.26 (≈ 2.47 µM) | ≤ 0.0625 | 0.125 (≈ 0.245 µM) | ≤ 0.0625 | COc1ccc2nccc([C@@H](O)CC[C@@H]3CCN(C4CC(c5cc(F)ccc5F)C4)C[C@@H]3C(=O)O)c2c1 (stereo partly drawn) [Example 40, (3R,4R)-1-[3-(2,5-difluorophenyl)cyclobutyl]-4-[(3S)-3-hydroxy-3-(6-methoxyquinolin-4-yl)propyl] piperidine-3-carboxylic acid] | – | – | – | – | –
4 | > 64 | > 64 | > 64 | > 64 | > 64 | COc1ccc2nccc([C@@H](O)CC[C@@H]3CCN(C4CC(c5ccc(-c6ccccc6)cc5)C4)C[C@@H]3C(=O)O)c2c1 (stereo partly drawn) [Example 41, (3R,4R)-1-(3-biphenyl-4-ylcyclobutyl)-4-[(3S)-3-hydroxy-3-(6-methoxyquinolin-4-yl)propyl] piperidine-3-carboxylic acid] | – | – | – | – | –
5 | > 64 | 32 (≈ 65.5 µM) | 32 (≈ 65.5 µM) | > 64 | > 64 | COc1ccc2nccc(C(O)CC[C@@H]3CCN(C4CC(C)(c5ccccc5)C4)C[C@@H]3C(=O)O)c2c1 (stereo partly drawn) [Example 42, (3R,4R)-4-[3-hydroxy-3-(6-methoxyquinolin-4-yl)propyl]-1-(3-methyl-3-phenylcyclobutyl)piperidine-3-carboxylic acid] | – | – | – | – | –
6 | ≤ 0.0625 | 0.5 (≈ 1.02 µM) | ≤ 0.0625 | 0.25 (≈ 0.512 µM) | ≤ 0.0625 | COc1ccc2nccc(C(O)CC[C@@H]3CCN(C4CC(c5ccccc5)C4C)C[C@@H]3C(=O)O)c2c1 (stereo partly drawn) [Example 43, (3R,4R)-4-[3-hydroxy-3-(6-methoxyquinolin-4-yl)propyl]-1-(2-methyl-3-phenylcyclobutyl)piperidine-3-carboxylic acid] | – | – | – | – | –
7 | 0.125 (≈ 0.26 µM) | 2 (≈ 4.16 µM) | 0.125 (≈ 0.26 µM) | 0.5 (≈ 1.04 µM) | 0.25 (≈ 0.52 µM) | COc1ccc2nccc(C(O)CC[C@@H]3CCN(C4CC(C5CCCCC5)C4)C[C@@H]3C(=O)O)c2c1 (stereo partly drawn) [Example 44, (3R,4R)-1-(3-cyclohexylcyclobutyl)-4-[3-hydroxy-3-(6-methoxyquinolin-4-yl)propyl]piperidine-3-carboxylic acid] | – | – | – | – | –
8 | ≤ 0.0625 | 0.5 (≈ 1.07 µM) | 0.125 (≈ 0.268 µM) | 0.125 (≈ 0.268 µM) | ≤ 0.0625 | COc1ccc2nccc([C@@H](O)CC[C@@H]3CCN(C4CC(C5CCCC5)C4)C[C@@H]3C(=O)O)c2c1 (stereo partly drawn) [Example 47, (3R,4R)-1-(3-cyclopentylcyclobutyl)-4-[(3S)-3-hydroxy-3-(6-methoxyquinolin-4-yl)propyl]piperidine-3-carboxylic acid] | – | – | – | – | –
9 | 16 (≈ 33.2 µM) | 16 (≈ 33.2 µM) | 8 (≈ 16.6 µM) | 32 (≈ 66.3 µM) | 16 (≈ 33.2 µM) | COc1ccc2nccc(C(O)CC[C@@H]3CCN(C4CC(CC5CCOC5)C4)C[C@@H]3C(=O)O)c2c1 (stereo partly drawn) [Example 51, (3R,4R)-4-[3-hydroxy-3-(6-methoxyquinolin-4-yl)propyl]-1-[3-(tetrahydrofuran-3-ylmethyl)cyclobutyl]piperidine-3-carboxylic acid] | – | – | – | – | –

The remaining lines, values behind:

Row | Structure (SMILES) | MIC (Staph aureus 2811) [µg/mL] | MIC (Staph aureus 1146 [1]) [µg/mL] | MIC (Staph aureus 2812) [µg/mL] | MIC (Staph aureus 1095 MRSA) [µg/mL] | MIC (Staph aureus 1146 [2]) [µg/mL] | MIC, column D (Staph aureus 2811) | MIC, column C (Staph aureus 1146 [1]) [µg/mL] | MIC, column E (Staph aureus 2812) | MIC, column A (Staph aureus 1095 MRSA) [µg/mL] | MIC, column B (Staph aureus 1146 [2])
10 | COc1ccc2nccc(C(O)CC[C@@H]3CCN(C4CC(c5cc(F)ccc5F)C4)C[C@@H]3C(=O)O)c2c1 (stereo partly drawn) [Example 38, (3R,4R)-1-[3-(2,5-difluorophenyl)cyclobutyl]-4-[3-hydroxy-3-(6-methoxyquinolin-4-yl)propyl] piperidine-3-carboxylic acid] | 0.125 (≈ 0.245 µM) | 4 (≈ 7.83 µM) | 0.125 (≈ 0.245 µM) | 0.25 (≈ 0.49 µM) | 0.125 (≈ 0.245 µM) | – | – | – | – | –
11 | COc1ccc2ncc(F)c(C(O)CC[C@@H]3CCN(C4CC(c5cc(F)ccc5F)C4)C[C@@H]3C(=O)O)c2c1 (stereo partly drawn) [Example 39, (3R,4R)-1-[3-(2,5-difluorophenyl)cyclobutyl]-4-[3-(3-fluoro-6-methoxyquinolin-4-yl)-3-hydroxypropyl]piperidine-3-carboxylic acid] | 0.25 (≈ 0.473 µM) | 1 (≈ 1.89 µM) | ≤ 0.0625 | ≤ 0.125 | ≤ 0.0625 | – | – | – | – | –
12 | COc1ccc2nccc(C(O)CC[C@@H]3CCN(C4CC(C5CCCC5)C4)C[C@@H]3C(=O)O)c2c1 (stereo partly drawn) [Example 45, (3R,4R)-1-(3-cyclopentylcyclobutyl)-4-[3-hydroxy-3-(6-methoxyquinolin-4-yl)propyl]piperidine-3-carboxylic acid] | ≤ 0.0884 | 0.353 (≈ 0.758 µM) | ≤ 0.0884 | ≤ 0.125 | ≤ 0.0884 | – | – | – | – | –
13 | COc1ccc2nccc([C@H](O)CC[C@@H]3CCN(C4CC(C5CCCC5)C4)C[C@@H]3C(=O)O)c2c1 (stereo partly drawn) [Example 46, (3R,4R)-1-(3-cyclopentylcyclobutyl)-4-[(3R)-3-hydroxy-3-(6-methoxyquinolin-4-yl)propyl]piperidine-3-carboxylic acid] | 1 (≈ 2.14 µM) | 8 (≈ 17.1 µM) | 2 (≈ 4.29 µM) | 1 (≈ 2.14 µM) | 1 (≈ 2.14 µM) | – | – | – | – | –
14 | COc1ccc2nccc([C@@H](O)CC[C@@H]3CCN(C4CC(C5CCCC5)C4)C[C@@H]3C(=O)O)c2c1 (stereo partly drawn) [Example 48, (3R,4R)-1-(3-cyclopentylcyclobutyl)-4-[(3S)-3-hydroxy-3-(6-methoxyquinolin-4-yl)propyl]piperidine-3-carboxylic acid] | – | – | – | – | – | 0.125 µg/mL (≈ 0.268 µM) | 1 (≈ 2.14 µM) | 0.125 µg/mL (≈ 0.268 µM) | 0.25 (≈ 0.536 µM) | 0.125 µg/mL (≈ 0.268 µM)
15 | COc1ccc2nccc(C(O)CC[C@@H]3CCN(C4CC(CC5CCCC5)C4)C[C@@H]3C(=O)O)c2c1 (stereo partly shown) [Example 49] | – | – | – | – | – | <=.0625 μg/ml | 0.25 (≈ 0.52 µM) | <=.0625 μg/ml | 0.125 (≈ 0.26 µM) | <=.0625 μg/ml
16 | COc1ccc2nccc(C(O)CC[C@@H]3CCN(C4CC(C5CCOCC5)C4)C[C@@H]3C(=O)O)c2c1 (stereo partly drawn) [Example 50, (3R,4R)-4-[3-hydroxy-3-(6-methoxyquinolin-4-yl)propyl]-1-[3-(tetrahydro-2H-pyran-4-yl)cyclobutyl] piperidine-3-carboxylic acid] | 64 (≈ 133 µM) | 32 (≈ 66.3 µM) | 64 (≈ 133 µM) | 32 (≈ 66.3 µM) | 32 (≈ 66.3 µM) | – | – | – | – | –
17 | COc1ccc2nccc(C(O)CC[C@@H]3CCN(C4CC(CC5CCCO5)C4)C[C@@H]3C(=O)O)c2c1 (stereo partly drawn) [Example 52, (3R,4R)-4-[3-hydroxy-3-(6-methoxyquinolin-4-yl)propyl]-1-[3-(tetrahydrofuran-2-ylmethyl)cyclobutyl]piperidine-3-carboxylic acid] | 8 (≈ 16.6 µM) | 16 (≈ 33.2 µM) | 32 (≈ 66.3 µM) | > 64 | 16 (≈ 33.2 µM) | – | – | – | – | –
18 | COc1ccc2nccc(C(O)CC[C@@H]3CCN(C4CC5CCCCCC54)C[C@@H]3C(=O)O)c2c1 (stereo partly drawn) [Example 53, (3R,4R)-1-[(1,7)-bicyclo[5.2.0]non-8-yl]-4-[3-hydroxy-3-(6-methoxyquinolin-4-yl)propyl] piperidine-3-carboxylic acid] | – | – | – | – | – | 32 µg/mL (≈ 68.6 µM) | >64 | 16 µg/mL (≈ 34.3 µM) | 16 (≈ 34.3 µM) | >64 µg/mL
19 | COc1ccc2nccc(C(O)CC[C@@H]3CCN(C4CC5CCCCC54)C[C@@H]3C(=O)O)c2c1 (stereo partly drawn) [Example 54, (3R,4R)-1-[(1,6)-bicyclo[4.2.0]oct-7-yl]-4-[3-hydroxy-3-(6-methoxyquinolin-4-yl)propyl] piperidine-3-carboxylic acid] | – | – | – | – | – | >64 µg/mL | >64 | >64 µg/mL | >64 | 64 µg/mL (≈ 141 µM)
20 | COc1ccc2nccc(C(O)CC[C@@H]3CCN(C4CC5(CCCC5)C4)C[C@@H]3C(=O)O)c2c1 (stereo partly drawn) [Example 55, (3R,4R)-4-[3-hydroxy-3-(6-methoxyquinolin-4-yl)propyl]-1-spiro[3.4]oct-2-ylpiperidine-3-carboxylic acid] | 2 (≈ 4.42 µM) | 32 (≈ 70.7 µM) | 2 (≈ 4.42 µM) | 4 (≈ 8.84 µM) | 1 (≈ 2.21 µM) | – | – | – | – | –
